# Test results taken from patent publication US8772349B2, “Cannabinoid quinone derivatives” (Vivacell Biotechnology Espana, S.L., priority 2010, dated 2014).
# What was measured:
# [1] = MTT cytotoxicity assay, AGS; conditions: human
# Description: (§1) All cellular lines were grown at 37° C. and 5% CO2 in supplemented Dulbecco's modified Eagle's medium (DMEM) (Cambrex Co., Barcelona, Spain), containing 10% heat-inactivated fetal bovine serum (FBS) (Cambrex Co., Barcelona, Spain), 2 mM glutamine, penicillin (50 U/ml) and streptomycin (50 mg/ml).
# (§2) Aliquots of cell suspensions were dispensed at 100 μl volumes into wells of 96-well tissue culture plates at a density of 10^4 cells/well. […] In each MTT assay, every concentration of the assayed substance was tested in three replicates. The inhibitory effect of the various compounds was calculated as percentage inhibition relative to cells treated with vehicle (0.5% DMSO).
# [2] = MTT cytotoxicity assay, MDA; conditions: human
# Description: as §1, §2
# [3] = MTT cytotoxicity assay, HeLa; conditions: human
# Description: as §1, §2
# [4] = MTT cytotoxicity assay, T47D; conditions: human
# Description: as §1, §2
# [5] = MTT cytotoxicity assay, HCT116; conditions: human
# Description: as §1, §2
# [6] = MTT cytotoxicity assay, 3T3-L1; conditions: mouse
# Description: All cellular lines were grown at 37° C. and 5% CO2 in supplemented Dulbecco's modified Eagle's medium (DMEM) (Cambrex Co., Barcelona, Spain), containing 10% heat-inactivated fetal bovine serum (FBS) (Cambrex Co., Barcelona, Spain), 2 mM glutamine, penicillin (50 U/ml) and streptomycin (50 mg/ml). […] MSC were maintained in α-MEM with 15% FBS.
# as §2
# [7] = system: T47D, human breast adenocarcinoma; experiment: MTT cytotoxicity assay, T47D; conditions: read-out: IC50 values of MTT cytotoxicity assay; T47D, 24 hours of treatment
# Description: as §1, §2
# 3T3-L1 fibroblasts = experiment: 3T3-L1 adipocyte differentiation assay / total triglyceride quantification
# Description: The 3T3-L1 preadipocyte cell line was plated at a concentration of 2×10^5 cell/well in 6-well plates for RNA isolations and tygliceride cunatification. 3T3-L1 fibroblasts were grown until confluence (3 days) in DMEM with 10% FBS and antibiotics. Then (day 0), medium was supplemented with 1 μM dexamethasone, IBMX 0.5 mM and 10 μg/ml insulin, to induce differentiation for 2 days. In day 2, the medium was supplemented only with 5 μg/ml insulin for two more days. All mediums used were additionally supplemented with cannabinoids, or rosiglitazone (1 μM) as control, since day 0. […] For trygliceride cuantification, cells were maintained in medium supplemented with cannabinoids until day 12 and refreshed every two days. […] 3T3-L1 fully differentiated adipocytes were washed in PBS and sonicated three times for 5 seconds in a buffer containing 2 M NaCl, 2 mM EDTA and 50 mM sodium phosphate pH 7.4 to release cellular content. Total triglyceride content released was quantified using a commercial Triglyceride Assay kit (Applied BioSystem, Spain) based on a colorimetric reaction and measured by absorbance at 500 nm in a spectrophotometer.
# 3T3-L1 pre-adipocytes = experiment: Glucose uptake (2-deoxy-D-glucose transport); format: cell-based, mouse; conditions: FIG. 6; for glucose uptake: presence and absence of insulin (1.74 μM)
# Description: For assays of 2-deoxy-D-glucose transport 3T3-L1 pre-adipocytes cultured in 12-well plates were deprived of serum by incubation for 2 hours. […] Glucose transport was initiated by the addition of 50 μl of KRH buffer containing 0.5 mM 2-deoxy-D-[1, 2-3H]glucose (0.25 μCi) to each well; after 5 minutes, transport was terminated by washing the cells 3 times with ice-cold KRH buffer. The cells were solubilized, and the incorporated radioactivity was measured by liquid scintillation counting.
# Data are given as means with deviation standard error bars of three replicates. […]
# [8] = system: bone-marrow derived mesenchimal cells; experiment: Mesenchymal stem cell differentiation to osteoblasts or adipocytes, marker gene expression by QRT-PCR; format: cell-based; conditions: human MSC, compounds in differentiation medium, FIG. 7
# Description: Cells were plated at 500 cell/cm^2 on P6 plates (TPP, Trasadingen, Switzerland) containing α-MEM medium with 10% FBS. When the cell cultures were 80-90% confluent, the medium was supplemented with 10^−8 M dexamethasone, 0.2 mM ascorbic acid and 10 mM β-glycerolphosphate to induce differentiation to osteoblasts, and 5×10^−7 M dexamethasone, 0.5 mM isobutylmethylxanthine and […] indometacin to induce differentiation to adipocytes. All inducers were from Sigma-Aldrich. MSC (mesenchymal stem cells) were grown in an osteogenic or adipogenic medium for 21 days, together with a corresponding control (in the absence of differentiation inducers). Cell samples were collected at day 13. […] Expression values of nuclear ribosomal DNA were used to normalise the obtained values. Adipocyte and osteoblasts were obtained by differentiation of human mesenchymal stem cells grown in adipogenic or osteoblastogenic specific differentiation culture mediums. […] Bone forming osteoblasts and fat forming adipocytes are both derived from mesenchymal stem cells (MSCs). An increase in PPARg activity due to treatment with the antidiabetic thiazolidinedione (TZD) drug rosiglitazone results in a decreased number of osteoblasts and an increased number of adipocytes.
# [9] = system: adipokines gene expression (IL-6, AdipoQ); experiment: Adipocyte and adipokine gene expression by PCR in 3T3-L1 adipocytes; conditions: FIG. 5
# Description: 3T3-L1 fibroblasts were grown until confluence (3 days) in DMEM with 10% FBS and antibiotics. Then (day 0), medium was supplemented with 1 μM dexamethasone, IBMX 0.5 mM and 10 μg/ml insulin, to induce differentiation for 2 days. In day 2, the medium was supplemented only with 5 μg/ml insulin for two more days. All mediums used were additionally supplemented with cannabinoids, or rosiglitazone (1 μM) as control, since day 0. In case of RNA extractions, cells were harvested on day 4. […] GAPDH gene was used as houskeeping gene.
# [10] = AGS cells (human gastric adenocarcinoma)
# [11] = MDA cells (human breast cancer)
# [12] = HeLa cells (human cervical carcinoma)
# [13] = T47D cells (human breast adenocarcinoma)
# [14] = HCT116 cells (human colon carcinoma)
# [15] = 3T3-L1 cells (mouse embryonic fibroblast, adipose-like)
SMILES,"IC50 at 24 h [1, 10] [µM]","IC50 at 24 h [2, 11] [µM]","IC50 at 24 h [3, 12] [µM]","IC50 at 24 h [4, 13] [µM]","IC50 at 24 h [5, 14] [µM]","IC50 at 24 h [6, 15] [µM]",IC50 at 24 h [1] [µM],IC50 at 24 h [2] [µM],IC50 at 24 h [3] [µM],IC50 at 24 h [5] [µM],IC50 at 24 h [6] [µM],glucose uptake (3T3-L1 pre-adipocytes),AdipoQ gene expression [9],IL-6 gene expression [9],also measured
"C=C(C)[C@@H]1CCC(C)=C[C@H]1c1c(O)cc(CCCCC)cc1O [CBD, cannabidiol]",25,> 50,> 50,35,> 50,30,,,,,,,,,
"C=C(C)C1CCC(C)=C[C@H]1C1=C(O)C(=O)C(CCCCC)=CC1=O (some centres unmarked) [CBD-Q, CBD-Quinone]",,,,,,,7.44,10.1,40.5,9.8,12,,,,"IC50 at 24 h ([4]; IC50 values of MTT cytotoxicity assay, T47D, 24 hours of treatment): 20 µM; IC50 [7]: 17.1 µM; cytotoxic effect in adipocyte differentiation assay, concentration (3T3-L1 fibroblasts; 3T3-L1, FIG. 8C, lacking bar): higher than 1 μM"
"CCCCCC1=CC(=O)C(C/C=C(\C)CCC=C(C)C)=C(O)C1=O [CBG-Q, CBG Hydroxyquinone]",,,,,,,48,49,> 50,47,49,able to increment the glucosa uptake both in presence and absence of insulin,increment on AdipoQ,reduction of the pro-inflammatory cytokine IL-6,"glucose uptake compared with CBG (3T3-L1 pre-adipocytes; absence of insulin): higher effect than CBG; expression of marker genes in adipocytes and osteoblasts [8]: no significant alteration in expression of marker genes; IC50 at 24 h [4]: 44 µM; differentiation of fibroblasts to adipocytes (total triglyceride), in words (3T3-L1 fibroblasts; 3T3-L1, FIGS. 4 and 8C): stimulate the differentiation of fibroblasts to adipocytes in a stronger way than CBG"
"CCCCCc1cc(O)c(C/C=C(\C)CCC=C(C)C)c(O)c1 [CBG, cannabigerol]",> 50,> 50,> 50,47,> 50,42.2,,,,,,able to increment the glucosa uptake both in presence and absence of insulin,increment on AdipoQ,reduction of the pro-inflammatory cytokine IL-6,
